Source: patent publication US11382892B2, “Method for administration” (Hoffmann-La Roche Inc., priority 2012, dated 2022)
“And” between values parts separate entries of the source, which are not always exact repeats. Identical values can stand only once.

What was measured:
TUNEL + cells = experiment: TUNEL assay in patient tumor biopsy cells; type: in vivo, human; details: for TUNEL + cells (mm2) Average FCBL: cohort average; for TUNEL + cells (mm2) Median FCBL: cohort median; for TUNEL + cells (mm2) FCBL: individual patients, tumor biopsy vs baseline
Description: The 10 mg tablets contain hypromellose acetate succinate, mannitol, microcrystalline cellulose, croscarmellose sodium, colloidal silicon dioxide, and magnesium stearate. The film-coat consists of hypromellose, titanium dioxide, talc, triacetin, iron oxide yellow, and iron oxide red. The 50 mg, 200 mg, and 400 mg film coated tablets contain the excipients hypromellose acetate succinate, croscarmellose sodium, colloidal silicon dioxide, and magnesium stearate. The film-coat consists of polyvinyl alcohol, titanium dioxide, polyethylene glycol, talc, iron oxide yellow, iron oxide red, and iron oxide black.
Tumor biopsies were collected at baseline and cycle 1, day 5±2.
Tumor biopsy cells were analyzed via TUNEL (terminal deoxynucleotidyl transferase dUTP nick end labeling) to determine cell apoptosis. TUNEL is a common method for detecting DNA fragmentation that results from apoptotic signaling cascades. The assay relies on the presence of nicks in the DNA which can be identified by terminal deoxynucleotidyl transferase or TdT, an enzyme that will catalyze the addition of dUTPs that are secondarily labeled with a marker.

[1] = Toxicity summary (body weight, mortality) in SJSA1 xenograft study; type: in vivo
Text: (§1) In the examples below, weight loss was graphically represented as percent change in mean group body weight, using the formula: ((W−W0)/W0)×100, where ‘W’ represents mean body weight of the treated group at a particular day, and ‘W0’ represents mean body weight of the same treated group at initiation of treatment.
(§2) Female athymic Crl:NU-Foxn1nu mice (10/group), obtained from Charles River Laboratories (Wilmington, Del.) were utilized when they were approximately 10-12 weeks of age and weighed 23-25 g. The health of the mice was assessed daily by gross observation and analyses of blood samples taken from sentinel animals housed on shared shelf racks. All animals were allowed to acclimate and recover from any shipping-related stress for a minimum of 72 hours prior to experimental use. Autoclaved water and irradiated food (5058-ms Pico Lab mouse chow, Purina Mills, Richmond, Ind.) were provided ad libitum, and the animals were maintained on a 12 hour light and dark cycle. Cages, bedding and water bottles were autoclaved before use and changed weekly. All animal experiments were conducted in accordance with the Guide for the Care and Use of Laboratory Animals, local regulations, and protocols approved by the Roche Animal Care and Use Committee in an AAALAC accredited facility.
Treatment duration was 2-4 weeks. Dates of tumor implant, treatment initiation (study start date), and termination of treatment (study end date) can be found in Table 6 below. The starting tumor volume for this study was about 220 mm^3. Tumor volumes and animal body weights were measured three times per week and animals were monitored for clinical signs daily.

[2] = Toxicity summary (body weight, mortality) in MOLM-13 xenograft study; type: in vivo; details: MOLM-13 study
Text: as §1
as §2, with “SCID:beige” for “athymic Crl:NU-Foxn1nu”, “8-10” for “10-12”, “21-23” for “23-25”
Treatment duration was initiated on day 3 and was for 2 weeks. Animal body weights were measured three times per week and animals were monitored for clinical signs daily.

[3] = 100 mg/kg QD po 2 on/12 off x 2
[4] = 200 mg/kg (two 100 mg/kg doses 8 hr apart) 1x/wk po

COc1cc(C(=O)O)ccc1NC(=O)[C@@H]1N[C@@H](CC(C)(C)C)[C@](C#N)(c2ccc(Cl)cc2F)[C@H]1c1cccc(Cl)c1F [Compound A, 4-{[(2R,3S,4R,5S)-4-(4-Chloro-2-fluoro-phenyl)-3-(3-chloro-2-fluoro-phenyl)-4-cyano-5-(2,2-dimethyl-propyl)-pyrrolidine-2-carbonyl]-amino}-3-methoxy-benzoic acid]
TUNEL + cells (mm2) Average FCBL (TUNEL + cells; BM-A1 800 mg bid Qwk × 3): 1.2
TUNEL + cells (mm2) Median FCBL (TUNEL + cells; BM-A1 800 mg bid Qwk × 3): 0.8
TUNEL + cells (mm2) FCBL (TUNEL + cells; BM-A1 800 mg bid Qwk × 3): 0.8 (2×) and 3.2 and 0.1
TUNEL + cells (mm2) Average FCBL (TUNEL + cells; BM-A2 1200 mg bid Qwk × 3): 2.7
TUNEL + cells (mm2) Median FCBL (TUNEL + cells; BM-A2 1200 mg bid Qwk × 3): 2.3
TUNEL + cells (mm2) FCBL (TUNEL + cells; BM-A2 1200 mg bid Qwk × 3): 5.3 and 2.3 and 0.9 and 1.6 and 3.3
TUNEL + cells (mm2) Average FCBL (TUNEL + cells; BM-B1 400 mg bid × 5 d): 1.7
TUNEL + cells (mm2) Median FCBL (TUNEL + cells; BM-B1 400 mg bid × 5 d): 1.8
TUNEL + cells (mm2) FCBL (TUNEL + cells; BM-B1 400 mg bid × 5 d): 0.9 (2×) and 1.8 (2×) and 3.2
TUNEL + cells (mm2) Average FCBL (TUNEL + cells; BM-B2 500 mg bid × 3 d): 1.7
TUNEL + cells (mm2) Median FCBL (TUNEL + cells; BM-B2 500 mg bid × 3 d): 0.9
TUNEL + cells (mm2) FCBL (TUNEL + cells; BM-B2 500 mg bid × 3 d): 0.5 and 0.4 and 0.6 and 5.3 and 1.2 and 1.9
TUNEL + cells (mm2) Average FCBL (TUNEL + cells; BM-B3 500 mg qd × 5 d): 1.2
TUNEL + cells (mm2) Median FCBL (TUNEL + cells; BM-B3 500 mg qd × 5 d): 1.2
TUNEL + cells (mm2) FCBL (TUNEL + cells; BM-B3 500 mg qd × 5 d): 0.6 and 1.7 and 1.2
apoptosis by TUNEL (TUNEL + cells; doses and schedules of Table 10): increase in apoptosis
# of animals ≥20% BWL ([1]; 7.5 mg/kg QD po): 0
% Change in Body Weight at end of Study Day 29 ([1]; 7.5 mg/kg QD po): 9.0%
Maximum % Weight gain ([1]; 7.5 mg/kg QD po): 9.0%
Maximum % Weight loss ([1]; 7.5 mg/kg QD po): −0.3%
Mortality ([1]; 7.5 mg/kg QD po): 0
# of animals ≥20% BWL ([1]; 15 mg/kg QD po): 0
% Change in Body Weight at end of Study Day 29 ([1]; 15 mg/kg QD po): 5.9%
Maximum % Weight gain ([1]; 15 mg/kg QD po): 5.9%
Maximum % Weight loss ([1]; 15 mg/kg QD po): −2.2%
Mortality ([1]; 15 mg/kg QD po): 0
# of animals ≥20% BWL ([1]; 20 mg/kg QD po 20 on/8 off): 0
% Change in Body Weight at end of Study Day 29 ([1]; 20 mg/kg QD po 20 on/8 off): 1.2%
Maximum % Weight gain ([1]; 20 mg/kg QD po 20 on/8 off): 1.2%
Maximum % Weight loss ([1]; 20 mg/kg QD po 20 on/8 off): −3.9%
Mortality ([1]; 20 mg/kg QD po 20 on/8 off): 0
# of animals ≥20% BWL ([1]; 30 mg/kg QD po): 0
% Change in Body Weight at end of Study Day 29 ([1]; 30 mg/kg QD po): 1.3%
Maximum % Weight gain ([1]; 30 mg/kg QD po): 1.3%
Maximum % Weight loss ([1]; 30 mg/kg QD po): −0.2%
Mortality ([1]; 30 mg/kg QD po): 0
# of animals ≥20% BWL ([1]; 50 mg/kg 1x/wk po): 0
% Change in Body Weight at end of Study Day 29 ([1]; 50 mg/kg 1x/wk po): 6.6%
Maximum % Weight gain ([1]; 50 mg/kg 1x/wk po): 6.6%
Maximum % Weight loss ([1]; 50 mg/kg 1x/wk po): −0.3%
Mortality ([1]; 50 mg/kg 1x/wk po): 0
# of animals ≥20% BWL ([1]; 50 mg/kg QD po 2 on/5 off x 4): 0
% Change in Body Weight at end of Study Day 29 ([1]; 50 mg/kg QD po 2 on/5 off x 4): 7.1%
Maximum % Weight gain ([1]; 50 mg/kg QD po 2 on/5 off x 4): 7.1%
Maximum % Weight loss ([1]; 50 mg/kg QD po 2 on/5 off x 4): −0.8%
Mortality ([1]; 50 mg/kg QD po 2 on/5 off x 4): 0
# of animals ≥20% BWL ([1]; 50 mg/kg QD po 4 on/10 off x 2): 0
% Change in Body Weight at end of Study Day 29 ([1]; 50 mg/kg QD po 4 on/10 off x 2): 1.2%
Maximum % Weight gain ([1]; 50 mg/kg QD po 4 on/10 off x 2): 1.2%
Maximum % Weight loss ([1]; 50 mg/kg QD po 4 on/10 off x 2): −1.1%
Mortality ([1]; 50 mg/kg QD po 4 on/10 off x 2): 0
# of animals ≥20% BWL ([1]; 80 mg/kg QD po 5 on/23 off): 0
% Change in Body Weight at end of Study Day 29 ([1]; 80 mg/kg QD po 5 on/23 off): 8.0%
Maximum % Weight gain ([1]; 80 mg/kg QD po 5 on/23 off): 8.0%
Maximum % Weight loss ([1]; 80 mg/kg QD po 5 on/23 off): 0.3%
Mortality ([1]; 80 mg/kg QD po 5 on/23 off): 0
# of animals ≥20% BWL ([1]; 100 mg/kg 1x/wk po): 0
% Change in Body Weight at end of Study Day 29 ([1]; 100 mg/kg 1x/wk po): 9.1%
Maximum % Weight gain ([1]; 100 mg/kg 1x/wk po): 9.1%
Maximum % Weight loss ([1]; 100 mg/kg 1x/wk po): 4.2%
Mortality ([1]; 100 mg/kg 1x/wk po): 0
# of animals ≥20% BWL ([1]; 100 mg/kg QD po 2 on/5 off x 4): 0
% Change in Body Weight at end of Study Day 29 ([1]; 100 mg/kg QD po 2 on/5 off x 4): 1.3%
Maximum % Weight gain ([1]; 100 mg/kg QD po 2 on/5 off x 4): 1.3%
Maximum % Weight loss ([1]; 100 mg/kg QD po 2 on/5 off x 4): −2.8%
Mortality ([1]; 100 mg/kg QD po 2 on/5 off x 4): 0
# of animals ≥20% BWL [1, 3]: 0
% Change in Body Weight at end of Study Day 29 [1, 3]: 0.9%
Maximum % Weight gain [1, 3]: 1.8%
Maximum % Weight loss [1, 3]: −0.6%
Mortality [1, 3]: 0
# of animals ≥20% BWL [1, 4]: 0
% Change in Body Weight at end of Study Day 29 [1, 4]: 6.3%
Maximum % Weight gain [1, 4]: 6.3%
Maximum % Weight loss [1, 4]: 1.9%
Mortality [1, 4]: 0
treatment related toxicity ([2]; 80 mg/kg qd × 5 po): absence of treatment related toxicity
# of animals ≥20% BWL ([2]; 80 mg/kg qdx5 po): 0
% Change in Body Weight at end of Study Day 17 ([2]; 80 mg/kg qdx5 po): −3.2%
Maximum % Weight gain ([2]; 80 mg/kg qdx5 po): −3.2%
Maximum % Weight loss ([2]; 80 mg/kg qdx5 po): −5.5%
Mortality (reason) ([2]; 80 mg/kg qdx5 po, reason: dosing injury): 1 (dosing
